Assay results published in patent publication US20190343858A1, “METHOD OF REGULATING THE CIRCADIAN RHYTHM OF AN INDIVIDUAL COMPRISING ADMINISTERING AN EFFECTIVE AMOUNT OF A CIRCADIAN RHYTHM REGULATOR CONTAINING 1,2-DI-O-GALLOYL-4,6-O-(S)-HEXAHYDROXYDIPHENOYL-B-D-GLUCOSE” (ORYZA OIL & FAT CHEMICAL CO., LTD,, priority 2017, published 2019).

Tested on: BMAL1 gene
Test: Evaluation of the BMAL1 gene-expression-promotion activity (BMAL1 mRNA amount via reverse-transcribed cDNA)
Assay type: cell-based
Details: rat-muscle myoblasts C2Cl2, differentiation-induction, cultivated one week; 3 μg/mL; Dunnett, ** p<0.01
Method: Differentiation-induction was done to the rat-muscle myoblasts C2Cl2. At the same time, the purple-tea extract of 0.1, 1.0, 3.0 and 10 μg/mL, and the GHG of 0.1, 1.0 and 3 μg/mL, was respectively added to such myoblasts and cultivated for one week. After that, an RNA extraction was done to determine, by using a reverse-transcribed cDNA, the amount of mRNA and of the BMAL1 gene.
A significance-test was done by the Dunnett Method, and the double asterisk ** means p<0.01. Also, no active components were added to the “control,” but the purple-tea extract (GHG-content extract) was added to the “PTE.”

O=C(OC1OC2COC(=O)c3cc(O)c(O)c(O)c3-c3c(cc(O)c(O)c3O)C(=O)OC2C(O)C1OC(=O)c1cc(O)c(O)c(O)c1)c1cc(O)c(O)c(O)c1 [GHG, 1,2-di-O-galloyl-4,6-O—(S)-hexahydroxydiphenoyl-ß-D-glucose]
expression-level of the BMAL1 gene against the Control: significantly was seen to have increased
